Results on 3 compounds are retold here after patent publication US6525057B2, “Sustained release ranolazine formulations” (CV Therapeutics, Inc., priority 1998, dated 2003).

Read-outs that look alike come from different tables or passages of the source.

Data set [1] in a line: Example 8: Day 5 pharmacokinetics of racemic ranolazine and enantiomers, SR 1500 and 2000 mg bid. The data set is classed as in vivo, human. Conditions: for Cave / Cmin / Degree of fluctuation / Tmax / Cmax / AUC: Day 5, 1500 mg SR bid (racemic, Example 2D); for Tmax / Cmax / AUC: male, human, plasma, oral; for Tmax: 1500 mg, read-out: Median tmax; for AUC: read-out: AUC96-108h; for differences in the pharmacokinetic parameters of the enantiomers: multiple dosing with the SR formulation. How it is done: This Example evaluated the safety and tolerability of administering racemic ranolazine free base formulations as in Example 2D. The individual and mean concentrations of racemic ranolazine and its enantiomers, (R)-(+)-N-(2,6-dimethylphenyl)-4-[2-hydroxy-3-(2-methoxyphenoxy)-propyl]-1-piperazineacetamide, (S)-(−)-N-(2,6-dimethylphenyl)-4-[2-hydroxy-3-(2-methoxyphenoxy)-propyl]-1-piperazineacetamide in human plasma were also determined.
The study was performed with ascending doses of sustained release ranolazine dosage forms. Before and at intervals during and after the dosing period, blood samples were drawn for ranolazine assay and blood pressure, heart rate, ECG and symptoms were monitored throughout. Data summaries were reviewed after each phase before proceeding to the next phase of the study.
Eight subjects, all healthy male volunteers aged between 18 and 40 entered and all completed the study and were available for pharmacokinetic and safety analysis. The subjects were each given doses of the various types of ranolazine free base in the form of sustained release tablets including 500 mg and 750 mg tablets or with matching placebo as necessary (2×750 mg size plus 1×500 mg size) to make unit oral doses of 1500 and 2000 mg.
In each phase: one dose bid for four days with a single dose on Day 5. On day 5 each volunteer underwent a full pharmacokinetic profile including supine and erect blood pressure (BP) and heart rate, ECG data, adverse events, clinical chemistry and hematology results, urinalysis results.
These tests were made using two-sided t-tests with estimates of variability from the ANOVA models. Steady state was also assessed by comparing means for C48h, C72h and C96h using a mixed effects ANOVA model and untransformed and log, transformed data. For hemodynamic parameters, Day 1 pre-dose treatment means and Day 5 data were compared across treatments via two-sided t-tests using estimates of variability from mixed effects ANOVA models. Ninety and 95% confidence intervals were calculated for the treatment comparisons. No adjustments were made for multiple comparisons.

For data set [2] the following is noted: cited from earlier work; for mean peak plasma concentration of ranolazine free base: 1 hour after dose; for mean trough plasma concentration: 8 hours after dose.
Data set [3] relates to patients with stable angina pectoris. Conditions: 30, 60 and 120 mg tid; cited from earlier work.

As a reminder, the Tmax is the time at which the peak concentration occurs. Usually Cmax stands for the maximum level reached in the sampled fluid or tissue. In the case of `COc1ccccc1OC[C@H](O)CN1CCN(CC(=O)Nc2c(C)cccc2C)CC1` [(+)R ranolazine, (R)-(+)-N-(2,6-dimethylphenyl)-4-[2-hydroxy-3-(2-methoxyphenoxy)-propyl]-1-piperazineacetamide], in data set [1], the Cave worked out at 2144 ± 1115 ng/mL, the Cmin was 1436 ± 1046 ng/mL, the Degree of fluctuation was 0.833 and the Tmax was 4 h. Also, in data set [1], the peak level (Cmax) was 2910 ± 1310 ng/mL, the AUC came to 25700 ng·h/mL and the “differences in the pharmacokinetic parameters of the enantiomers” value is listed as “no differences”.
Take `COc1ccccc1OC[C@@H](O)CN1CCN(CC(=O)Nc2c(C)cccc2C)CC1` [(−)S ranolazine, (S)-(−)-N-(2,6-dimethylphenyl)-4-[2-hydroxy-3-(2-methoxyphenoxy)-propyl]-1-piperazineacetamide]: in data set [1], the Cave was 2201 ± 1237 ng/mL, the Cmin stood at 1514 ± 1201 ng/mL, the Degree of fluctuation amounted to 0.824 and the Tmax was 4 h. Further, in data set [1], the highest level (Cmax) was 2940 ± 1430 ng/mL, the AUC was 26400 ng·h/mL and the “differences in the pharmacokinetic parameters of the enantiomers” value was “no differences”.
Turning to `COc1ccccc1OCC(O)CN1CCN(CC(=O)Nc2c(C)cccc2C)CC1` (stereo not drawn) [ranolazine .2HCl], the “mean peak plasma concentration of ranolazine free base” value is 94 ng/mL in data set [2] (30 mg tid IR), 219 ng/mL in data set [2] (60 mg tid IR) and 510 ng/mL in data set [2] (120 mg tid IR). In addition, the results for the “mean trough plasma concentration” value in data set [2] (30 mg tid IR), in data set [2] (60 mg tid IR) and in data set [2] (120 mg tid IR) were 18 ng/mL, 37 ng/mL and 90 ng/mL, respectively. Besides, the “therapy compared with placebo” value in data set [3] is listed as “not superior to placebo”.
